What was measured:
[1] = target: Glutamate NMDA receptor; assay: Inhibition of [3H]dizocilpine binding to N-methyl-D-aspartate (NMDA) receptor complex in rat brain membranes; assay type: cell membranes
[2] = organism: Rattus norvegicus; assay: Inhibitory activity (10.0 uM) against NMDA (30 uM) and glycine (10 uM) induced increase in [Ca2+]i in cultured forebrain neurons from fetal rat; assay type: functional; parameters: scale not given: the % may be the effect or the level left
[3] = organism: Rattus norvegicus; assay: Protective potency against glutamate-induced neurotoxicity in cultures of embryonic rat brain at a compound concentration of 10 uM+Glutamate (100 uM); assay type: functional
[4] = organism: Rattus norvegicus; assay: Protective potency against glutamate-induced neurotoxicity in cultures of embryonic rat brain at a concentration of 100 uM+Glutamate (100 uM); assay type: functional
[5] = organism: Rattus norvegicus; assay: Inhibitory activity (1.0 uM) against NMDA (30 uM) and glycine (10 uM) induced increase in [Ca2+]i in cultured forebrain neurons from fetal rat; assay type: functional; parameters: scale not given: the % may be the effect or the level left
[6] = organism: Rattus norvegicus; assay: Protective potency against glutamate-induced neurotoxicity in cultures of embryonic rat brain at a compound concentration of 100 uM; assay type: functional
[7] = organism: Rattus norvegicus; assay: Protective potency against glutamate-induced neurotoxicity in cultures of embryonic rat brain at a compound concentration of 10 uM; assay type: functional
[8] = organism: Rattus norvegicus; assay: Inhibitory activity (0.1 uM) against NMDA (30 uM) and glycine (10 uM) induced increase in [Ca2+]i in cultured forebrain neurons from fetal rat; assay type: functional; parameters: scale not given: the % may be the effect or the level left
[9] = organism: Rattus norvegicus; assay: Protective potency against glutamate-induced neurotoxicity in cultures of embryonic rat brain at a concentration of 100 uM (p < 0.05); assay type: functional

SMILES	IC50 [1]	other results
N#Cc1ccc(N2CCCN(c3ccc(C#N)cc3)CC2)cc1	45.8 µM	–
C(=C1/CCCN(c2ccc(C3=NCCN3)cc2)C1)/c1ccc(C2=NCCN2)cc1	8.35 µM	–
c1cc(C2=NCCN2)ccc1OC[C@@H]1C[C@H]1COc1ccc(C2=NCCN2)cc1	16.5 µM	–
N=C(N)c1ccc(OC[C@@H]2C[C@H]2COc2ccc(C(=N)N)cc2)cc1	11.7 µM	–
C(=C1CCN(Cc2ccc(C3=NCCN3)cc2)CC1)c1ccc(C2=NCCN2)cc1	35.6 µM	–
c1cc(N2CCN(c3ccc(C4=NCCN4)cc3)CC2)ccc1C1=NCCN1	18.2 µM	–
N=C(N)c1ccc(NC(=O)c2cccc(C(=O)Nc3ccc(C(=N)N)cc3)c2)cc1	> 200 µM	–
c1cc(C2=NCCN2)ccc1CC1CCCN(c2ccc(C3=NCCN3)cc2)C1 (configuration not stated)	7.84 µM	–
N=C(N)c1ccc(NC(=O)c2cccc(C(=O)Nc3ccc(C(=N)N)cc3)n2)cc1	66 µM	–
N[C@@H](CCC(=O)O)C(=O)O [GLUTAMIC ACID]	–	Activity [9]: 60%

The remaining compounds from weak to strong by IC50 [1], led by results:

IC50 [1]	SMILES	other results
6.29 µM	c1cc(C2=NCCN2)ccc1CC1CCN(c2ccc(C3=NCCN3)cc2)CC1	–
5.32 µM	N=C(N)c1ccc(N2CCN(c3ccc(C(=N)N)cc3)CC2)cc1	–
4.99 µM	c1cc(N2CCCN(c3ccc(C4=NCCN4)cc3)CC2)ccc1C1=NCCN1	–
2.59 µM	N=C(N)c1ccc(OCCCCCOc2ccc(C(=N)N)cc2)cc1 [PENTAMIDINE]	–
1.19 µM	N=C(N)c1ccc(N2CCCN(c3ccc(C(=N)N)cc3)CC2)cc1	Activity [2]: 37.58%; Activity [3]: 99%; Activity [4]: 98%; Activity [5]: 67.04%; Activity [6]: 87%; Activity [7]: 100%; Activity [8]: 111.26%

From ChEMBL document CHEMBL1132046, “Novel bisbenzamidines and bisbenzimidazolines as noncompetitive NMDA receptor antagonists” (Bioorg Med Chem Lett, 1999)
